Laboratory results: paper PMC11822212, “High-throughput screening identifies Aurora kinase B as a critical therapeutic target for Merkel cell carcinoma” (Nature Communications, 2025)
Where two headings read alike, the source gives them in different places.

Tests used:
[1] = test system: six MCC cell lines and four control cell lines; test: qHTS cell viability, all 10 cell lines screened; type: cell-based
[2] = test system: MCC cell lines (WAGA, MKL-1, MKL-2, MCC13, MCC26, UISO); test: qHTS cell viability, all six MCC cell lines as a group (mean AUC, MCC.avg); type: cell-based, human
[3] = test system: NIH-3T3 cells; test: qHTS cell viability (CellTiter-Glo, 72 h; primary screen), control cell line; type: cell-based, mouse
[4] = test system: MKL-1 cells (VP-MCC); test: qHTS cell viability (CellTiter-Glo, 72 h; primary and follow-up small molecule screen); type: cell-based, human
[5] = test system: WAGA cells (VP-MCC); test: as above; type: cell-based, human
[6] = test system: MCC13 cells (VN-MCC); test: as above; type: cell-based, human
[7] = test system: VN-MCC cell lines (MCC13, MCC26, UISO); test: qHTS cell viability, VN-MCC cell lines as a group (mean AUC, VN.MCC.avg); type: cell-based, human
[8] = test system: control cell lines (HACAT, HEK293T, CRL-7250, NIH-3T3); test: qHTS cell viability, control cell lines as a group (mean AUC, Control.avg); type: cell-based
[9] = test system: MKL-2 cells (VP-MCC); test: qHTS cell viability (CellTiter-Glo, 72 h; primary and follow-up small molecule screen); type: cell-based, human
[10] = test system: VP-MCC cell lines (WAGA, MKL-1, MKL-2); test: qHTS cell viability, VP-MCC cell lines as a group (mean AUC, VP.MCC.avg); type: cell-based, human
[11] = test system: UISO cells (VN-MCC); test: qHTS cell viability (CellTiter-Glo, 72 h; primary and follow-up small molecule screen); type: cell-based, human
[12] = test system: MCC26 cells (VN-MCC); test: as above; type: cell-based, human
[13] = test system: CRL-7250 cells; test: qHTS cell viability (CellTiter-Glo, 72 h; primary screen), control cell line; type: cell-based
[14] = test system: HACAT cells; test: as above; type: cell-based, human
[15] = test system: HEK293T cells; test: as above; type: cell-based, human
[16] = MIPE library, Control AUC minus MCC AUC (therapeutic window), sheet S2E
[17] = MIPE library, mean AUC of six MCC cell lines, sheet S2E
[18] = MIPE library, 11-point DRC, control cell line, sheet S2E
[19] = area under the dose-response curve, NIH3T3 control cells, AUC<450 = reduced viability
[20] = MIPE library, 11-point DRC, sheet S2E
[21] = area under the dose-response curve, MKL-1 cells, AUC<450 = reduced viability
[22] = area under the dose-response curve, WAGA cells, AUC<450 = reduced viability
[23] = area under the dose-response curve, MCC13 cells, AUC<450 = reduced viability
[24] = MIPE library, Control AUC minus VN-MCC AUC (therapeutic window), sheet S2E
[25] = MIPE library, mean AUC of VN-MCC cell lines, sheet S2E
[26] = MIPE library, mean AUC of control cell lines, sheet S2E
[27] = area under the dose-response curve, MKL-2 cells, AUC<450 = reduced viability
[28] = MIPE library, Control AUC minus VP-MCC AUC (therapeutic window), sheet S2E
[29] = MIPE library, mean AUC of VP-MCC cell lines, sheet S2E
[30] = area under the dose-response curve, UISO cells, AUC<450 = reduced viability
[31] = area under the dose-response curve, MCC26 cells, AUC<450 = reduced viability
[32] = area under the dose-response curve, CRL7250 control cells, AUC<450 = reduced viability
[33] = area under the dose-response curve, HACAT control cells, AUC<450 = reduced viability
[34] = area under the dose-response curve, HEK293T control cells, AUC<450 = reduced viability

CC1=C(/C=C/C(C)=C/C=C/C(C)=C\C(=O)O)C(C)(C)CCC1 [Isotretinoin]
Control-MCC [1, 16]: 26.3592 | MCC_Avg_AUC [2, 17]: 439.151 | NIH3T3_AUC [3, 18]: 458.083 | NIH3T3_AUC [3, 19]: 458.083 | MKL1_AUC [4, 20]: 418.758 | MKL1_AUC [4, 21]: 418.758 | WAGA_AUC [5, 20]: 423.315 | WAGA_AUC [5, 22]: 423.315 | MCC13_AUC [6, 20]: 457.493 | MCC13_AUC [6, 23]: 457.493 | Control-VN-MCC [7, 24]: 2.118 | VN-MCC_Avg_AUC [7, 25]: 463.393 | Control_Avg_AUC [8, 26]: 465.51 | MKL2_AUC [9, 20]: 402.656 | MKL2_AUC [9, 27]: 402.656 | Control-VP-MCC [10, 28]: 50.6007 | VP-MCC_Avg_AUC [10, 29]: 414.91 | UISO_AUC [11, 20]: 453.203 | UISO_AUC [11, 30]: 453.203 | MCC26_AUC [12, 20]: 479.481 | MCC26_AUC [12, 31]: 479.481 | CRL7250_AUC [13, 18]: 458.179 | CRL7250_AUC [13, 32]: 458.179 | HACAT_AUC [14, 18]: 476.199 | HACAT_AUC [14, 33]: 476.199 | HEK293T_AUC [15, 18]: 469.58 | HEK293T_AUC [15, 34]: 469.58

CNC(C)Cc1ccc2c(c1)OCO2.Cl (centres unmarked)
Control-MCC [1]: 54.0945 | MCC_Avg_AUC [2]: 435.698 | NIH3T3_AUC [3]: 493.81 | MKL1_AUC [4]: 436.372 | WAGA_AUC [5]: 422.784 | MCC13_AUC [6]: 451.345 | Control-VN-MCC [7]: 53.7607 | VN-MCC_Avg_AUC [7]: 436.031 | Control_Avg_AUC [8]: 489.792 | MKL2_AUC [9]: 446.935 | Control-VP-MCC [10]: 54.4283 | VP-MCC_Avg_AUC [10]: 435.364 | UISO_AUC [11]: 441.906 | MCC26_AUC [12]: 414.843 | CRL7250_AUC [13]: 491.585 | HACAT_AUC [14]: 490.316 | HEK293T_AUC [15]: 483.458

CC1=C(C)C(=O)C(CCCCC#CCCCC#CCO)=C(C)C1=O [Docebenone]
Control-MCC ([1]; NPC library, therapeutic window: Control avg AUC minus MCC avg AUC): 44.0275 | MCC_Avg_AUC ([2]; NPC library, mean AUC of six MCC cell lines): 426.453 | NIH3T3_AUC ([3]; NPC library, qHTS dose-response AUC, NIH3T3 control): 455.144 | NIH3T3_AUC [3, 19]: 455.144 | MKL1_AUC ([4]; NPC library, qHTS dose-response AUC, MKL1): 419.228 | MKL1_AUC ([4]; {}): 419.228 | WAGA_AUC ([5]; NPC library, qHTS dose-response AUC, WAGA): 424.745 | WAGA_AUC [5, 22]: 424.745 | MCC13_AUC ([6]; NPC library, qHTS dose-response AUC, MCC13): 444.208 | MCC13_AUC [6, 23]: 444.208 | VN-MCC_Avg_AUC ([7]; NPC library, mean AUC of VN-MCC cell lines): 435.96 | Control-VN-MCC ([7]; NPC library, therapeutic window: Control avg AUC minus VN-MCC avg AUC): 34.5201 | Control_Avg_AUC ([8]; NPC library, mean AUC of control cell lines): 470.48 | MKL2_AUC ([9]; NPC library, qHTS dose-response AUC, MKL2): 406.862 | MKL2_AUC [9, 27]: 406.862 | VP-MCC_Avg_AUC ([10]; NPC library, mean AUC of VP-MCC cell lines): 416.945 | Control-VP-MCC ([10]; NPC library, therapeutic window: Control avg AUC minus VP-MCC avg AUC): 53.5349 | UISO_AUC ([11]; NPC library, qHTS dose-response AUC, UISO): 433.913 | UISO_AUC [11, 30]: 433.913 | MCC26_AUC ([12]; NPC library, qHTS dose-response AUC, MCC26): 429.759 | MCC26_AUC [12, 31]: 429.759 | CRL7250_AUC ([13]; NPC library, qHTS dose-response AUC, CRL7250 control): 490.119 | CRL7250_AUC [13, 32]: 490.119 | HACAT_AUC ([14]; NPC library, qHTS dose-response AUC, HACAT control): 486.31 | HACAT_AUC [14, 33]: 486.31 | HEK293T_AUC ([15]; NPC library, qHTS dose-response AUC, HEK293T control): 450.348 | HEK293T_AUC [15, 34]: 450.348

Cc1c(C)n(Cc2ccc(-c3ccccc3C(=O)O)cc2)c2ccc(C(=O)N[C@@H](C)c3ccc([N+](=O)[O-])cc3)cc12 [SR1664]
Control-MCC [1, 16]: 82.8007 | MCC_Avg_AUC [2, 17]: 394.468 | NIH3T3_AUC [3, 18]: 484.086 | NIH3T3_AUC [3, 19]: 484.086 | MKL1_AUC [4, 20]: 300.491 | MKL1_AUC [4, 21]: 300.491 | WAGA_AUC [5, 20]: 329.214 | WAGA_AUC [5, 22]: 329.214 | MCC13_AUC [6, 20]: 475.759 | MCC13_AUC [6, 23]: 475.759 | Control-VN-MCC [7, 24]: 4.574 | VN-MCC_Avg_AUC [7, 25]: 472.695 | Control_Avg_AUC [8, 26]: 477.269 | MKL2_AUC [9, 20]: 319.019 | MKL2_AUC [9, 27]: 319.019 | Control-VP-MCC [10, 28]: 161.027 | VP-MCC_Avg_AUC [10, 29]: 316.242 | UISO_AUC [11, 20]: 472.261 | UISO_AUC [11, 30]: 472.261 | MCC26_AUC [12, 20]: 470.066 | MCC26_AUC [12, 31]: 470.066 | CRL7250_AUC [13, 18]: 475.771 | CRL7250_AUC [13, 32]: 475.77 | HACAT_AUC [14, 18]: 479.075 | HACAT_AUC [14, 33]: 479.075 | HEK293T_AUC [15, 18]: 470.145 | HEK293T_AUC [15, 34]: 470.145
